These are literature values, as cited in publication PMC10726920 (Cancer Medicine, 2023).

One data set deals with lymphoid neoplasms. On the set-up: method as in PMID 22080480. The conditions noted are these: cited from earlier work.
In data set [1] the test system is r/r ALL in second relapse or greater. The conditions noted are these: added to intensive chemotherapy, cited from earlier work.
The next data set deals with r/r pediatric ALL. The conditions noted are these: with cyclophosphamide, etoposide, cited from earlier work.
The test system of another data set is r/r ALL. Also on record: method as in PMID 25724525. The note with it: combined with Hyper‐CVAD; cited from earlier work.
A further data set deals with ALL at first relapse. Also on record: method as in PMID 29603593. The note with it: cited from earlier work.

Take `COc1cccc2cc(-c3nc([C@H]4CC[C@H](C(=O)O)CC4)n4ncnc(N)c34)[nH]c12` [OSI‐027]: in the data set with lymphoid neoplasms, the “sensitivity of ALL across a series of lymphoid neoplasms” value is “most sensitive”.

As to `CO[C@H]1C[C@@H]2CC[C@@H](C)[C@@](O)(O2)C(=O)C(=O)N2CCCC[C@H]2C(=O)O[C@H]([C@H](C)C[C@@H]2CC[C@@H](OC(=O)C(C)(CO)CO)[C@H](OC)C2)CC(=O)[C@H](C)/C=C(\C)[C@@H](O)[C@@H](OC)C(=O)[C@H](C)C[C@H](C)/C=C/C=C/C=C/1C` [temsirolimus], the patients achieving remission in data set [1] (Seven of 15) is recorded as 47%. Moreover, in data set [1] (three patients), the “patients with minimal residual disease <0.01%” value was 20%. Also, the overall response rate in the data set with r/r pediatric ALL (15 patients) was 47%. Besides, in the data set on r/r pediatric ALL, the “CR or CRi” value is reported as 26%.

Regarding `CO[C@H]1C[C@@H]2CC[C@@H](C)[C@@](O)(O2)C(=O)C(=O)N2CCCC[C@H]2C(=O)O[C@H]([C@H](C)C[C@@H]2CC[C@@H](OCCO)[C@H](OC)C2)CC(=O)[C@H](C)/C=C(\C)[C@@H](O)[C@@H](OC)C(=O)[C@H](C)C[C@H](C)/C=C/C=C/C=C/1C` [Everolimus], in the data set on r/r ALL, the “CR or CRi in patients with only one prior line of therapy” value is “Six of 11”, the “dose‐limiting toxicity” value is on record as “G3 mucositis” and the overall response rate is on record as 33%. The patients with meningitis in the data set on ALL at first relapse (dose level 3, Two out of twelve) is 17%. For the same compound, in the data set with ALL at first relapse (with multi‐agent chemotherapy, Nineteen of 22), the “patients obtaining remission (CR2)” value is 86%. For the same compound, the DLT entry in the data set with ALL at first relapse (with multi‐agent chemotherapy) is given as “elevated liver enzymes in one patient”.
